Results published in PubChem BioAssay (NCI).
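Five concentrations, 48 hours, 96-well plates. GI50 marks 50% less growth. At the TGI there is no net growth.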

Columns and labels:
Assay in all cases: NCI anticancer screen, dose series, 48 h
RPMI-8226 leukemia = tested on: RPMI-8226 leukemia
MDA-MB-231 breast = tested on: MDA-MB-231 breast
HT29 colon = tested on: HT29 colon
RXF 393 renal = tested on: RXF 393 renal
DU-145 prostate = tested on: DU-145 prostate
SK-MEL-28 melanoma = tested on: SK-MEL-28 melanoma
NCI-H460 lung = tested on: NCI-H460 lung
ACHN renal = tested on: ACHN renal
NCI/ADR-RES ovarian = tested on: NCI/ADR-RES ovarian
SF-268 CNS = tested on: SF-268 CNS

Row | Compound | GI50 (RPMI-8226 leukemia) | TGI (RPMI-8226 leukemia) | GI50 (MDA-MB-231 breast) | TGI (MDA-MB-231 breast) | GI50 (HT29 colon) | TGI (HT29 colon) | GI50 (RXF 393 renal) | TGI (RXF 393 renal) | GI50 (DU-145 prostate) | TGI (DU-145 prostate) | GI50 (SK-MEL-28 melanoma) | TGI (SK-MEL-28 melanoma) | GI50 (NCI-H460 lung) | TGI (NCI-H460 lung) | GI50 (ACHN renal) | TGI (ACHN renal) | GI50 (NCI/ADR-RES ovarian) | TGI (NCI/ADR-RES ovarian) | GI50 (SF-268 CNS) | TGI (SF-268 CNS)
1 | CN(O)c1nc(N(C)O)nc(N2CCOCC2)n1 | 3.85 µM | > 100 µM | 7 µM | > 100 µM | 4.67 µM | > 100 µM | 6.15 µM | > 100 µM | 4.93 µM | > 100 µM | 7.08 µM | > 100 µM | 0.8 µM | > 100 µM | 1.1 µM | > 100 µM | 2.56 µM | > 100 µM | 5.7 µM | > 100 µM
2 | COc1ccc(C(=O)c2cc(OC)c(OC)c(OC)c2)cc1OC(=O)CCl | < 0.021 µM | 12.9 µM | 0.0362 µM | – | 1.94 µM | > 100 µM | 0.0441 µM | > 100 µM | 0.0322 µM | – | 0.358 µM | > 100 µM | 0.0399 µM | > 100 µM | < 0.0267 µM | 98.7 µM | < 0.0167 µM | > 100 µM | 0.106 µM | > 100 µM
3 | COc1cc(C(=O)O[C@H](C(=O)NCCCCCNC(=O)[C@@H](OC(=O)c2cc(OC)cc3c(C)cccc23)[C@]2(C)CO2)[C@]2(C)CO2)c2cccc(C)c2c1 | 1.82 µM | 10.2 µM | 0.893 µM | 4.03 µM | 0.182 µM | > 100 µM | < 0.01 µM | 0.025 µM | 0.122 µM | – | 0.205 µM | – | – | 0.675 µM | < 0.0143 µM | < 0.0338 µM | 0.165 µM | 0.584 µM | < 0.0304 µM | 0.92 µM
4 | O=C(O)C(/C=C/c1ccccc1)c1ccccc1 (stereo not given) | – | > 100 µM | – | > 100 µM | – | > 100 µM | – | > 100 µM | – | > 100 µM | – | > 100 µM | – | > 100 µM | – | > 100 µM | – | > 100 µM | – | > 100 µM
5 | CC(C)N(Cc1ccccc1)c1c(S)ssc1=S | 0.772 µM | 6.27 µM | 1.77 µM | 5.49 µM | 2.29 µM | 9.59 µM | 2.17 µM | 10.1 µM | 3.15 µM | 28.7 µM | 2.09 µM | 17.8 µM | 2.33 µM | 10.7 µM | 1.97 µM | 12.4 µM | 3.33 µM | > 100 µM | 2.86 µM | 31.7 µM
6 | COc1ccc(-c2cn(-c3cc(OC)c(OC)c(OC)c3)c(SCc3ccccc3)n2)cc1OC | > 100 µM | > 100 µM | > 100 µM | > 100 µM | > 100 µM | > 100 µM | > 100 µM | > 100 µM | > 100 µM | > 100 µM | > 100 µM | > 100 µM | > 100 µM | > 100 µM | > 100 µM | > 100 µM | > 100 µM | > 100 µM | > 100 µM | > 100 µM
7 | Fc1ccc2c(c1)C1=NN(c3ccccc3)C(F)C1CO2 (stereo not given) | 9.04 µM | 33.4 µM | 5.36 µM | 13.6 µM | 10 µM | 26.3 µM | 7.33 µM | 41.4 µM | 5.18 µM | 21.8 µM | 9.51 µM | 22 µM | 10.5 µM | > 50 µM | 8.94 µM | 22.7 µM | 7.57 µM | 18.9 µM | 7.52 µM | 23.2 µM
8 | COc1cc2ccc(/C=C\[N+](=O)[O-])cc2cc1OC | – | 5.44 µM | – | 9.02 µM | – | 4 µM | – | 3.51 µM | – | 4.39 µM | – | 7.51 µM | – | > 56.4 µM | – | 3.2 µM | – | 17.2 µM | – | 11 µM
9 | O=C(CCCCCCCCC(=O)N/N=C\c1ccccc1O)N/N=C\c1ccccc1O | 1.03 µM | 35.8 µM | 0.225 µM | 32.2 µM | 4.62 µM | > 36.6 µM | 0.353 µM | 2.95 µM | 0.579 µM | 15.5 µM | 1.08 µM | > 100 µM | 0.27 µM | 1.47 µM | 0.235 µM | 20.1 µM | 0.514 µM | 25.4 µM | 0.342 µM | 9.72 µM
10 | Cc1ccc(Nc2n[nH]c(=S)s2)cc1C | – | > 100 µM | – | > 100 µM | – | > 100 µM | – | > 100 µM | – | > 100 µM | – | > 100 µM | – | > 100 µM | – | > 100 µM | – | > 100 µM | – | > 100 µM
11 | C#Cc1c(F)ccc2cc(O)cc(-c3ncc4c(N5CC6CCC(C5)N6)nc(OC[C@@]56CCCN5C[C@H](F)C6)nc4c3F)c12 | 5.1 µM | 29.9 µM | 2.36 µM | 13.7 µM | 9.99 µM | 31 µM | 13.5 µM | 27.5 µM | 14.9 µM | 28.6 µM | 15.6 µM | 29.1 µM | 6.87 µM | 21.2 µM | > 39.4 µM | > 53.8 µM | > 100 µM | > 100 µM | 12 µM | 25.4 µM
